Laboratory results published in ChEMBL document CHEMBL1201862, “PubChem BioAssay data set” (2004).
Each block holds one compound with its values, some of them ahead of it. Active and inactive are the calls of the source.

What was measured:
[1] = HEK-293T cell viability reduction – luminescence, B-cell screen hits, cytotoxicity control for BCR NF-kB inhibitor project, dose response (AID 489021); assay type: functional, cell-based;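 also: HEK-293T cells carrying an NF-kB luciferase reporter; cells exposed to compound for about 14 hours before viability readout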
[2] = target: G-protein coupled receptor 55 (Homo sapiens, UniProt Q9Y2T6); test: selective activators of receptor GPR55 – imaging, U2OS cells, beta-arrestin-GFP redistribution, primary screen (AID 1961); assay type: functional
[3] = target: T1, Histone-lysine N-methyltransferase NSD2 (Homo sapiens, UniProt O96028); assay type: biochemical
T1 sequence (O96028 whole entry): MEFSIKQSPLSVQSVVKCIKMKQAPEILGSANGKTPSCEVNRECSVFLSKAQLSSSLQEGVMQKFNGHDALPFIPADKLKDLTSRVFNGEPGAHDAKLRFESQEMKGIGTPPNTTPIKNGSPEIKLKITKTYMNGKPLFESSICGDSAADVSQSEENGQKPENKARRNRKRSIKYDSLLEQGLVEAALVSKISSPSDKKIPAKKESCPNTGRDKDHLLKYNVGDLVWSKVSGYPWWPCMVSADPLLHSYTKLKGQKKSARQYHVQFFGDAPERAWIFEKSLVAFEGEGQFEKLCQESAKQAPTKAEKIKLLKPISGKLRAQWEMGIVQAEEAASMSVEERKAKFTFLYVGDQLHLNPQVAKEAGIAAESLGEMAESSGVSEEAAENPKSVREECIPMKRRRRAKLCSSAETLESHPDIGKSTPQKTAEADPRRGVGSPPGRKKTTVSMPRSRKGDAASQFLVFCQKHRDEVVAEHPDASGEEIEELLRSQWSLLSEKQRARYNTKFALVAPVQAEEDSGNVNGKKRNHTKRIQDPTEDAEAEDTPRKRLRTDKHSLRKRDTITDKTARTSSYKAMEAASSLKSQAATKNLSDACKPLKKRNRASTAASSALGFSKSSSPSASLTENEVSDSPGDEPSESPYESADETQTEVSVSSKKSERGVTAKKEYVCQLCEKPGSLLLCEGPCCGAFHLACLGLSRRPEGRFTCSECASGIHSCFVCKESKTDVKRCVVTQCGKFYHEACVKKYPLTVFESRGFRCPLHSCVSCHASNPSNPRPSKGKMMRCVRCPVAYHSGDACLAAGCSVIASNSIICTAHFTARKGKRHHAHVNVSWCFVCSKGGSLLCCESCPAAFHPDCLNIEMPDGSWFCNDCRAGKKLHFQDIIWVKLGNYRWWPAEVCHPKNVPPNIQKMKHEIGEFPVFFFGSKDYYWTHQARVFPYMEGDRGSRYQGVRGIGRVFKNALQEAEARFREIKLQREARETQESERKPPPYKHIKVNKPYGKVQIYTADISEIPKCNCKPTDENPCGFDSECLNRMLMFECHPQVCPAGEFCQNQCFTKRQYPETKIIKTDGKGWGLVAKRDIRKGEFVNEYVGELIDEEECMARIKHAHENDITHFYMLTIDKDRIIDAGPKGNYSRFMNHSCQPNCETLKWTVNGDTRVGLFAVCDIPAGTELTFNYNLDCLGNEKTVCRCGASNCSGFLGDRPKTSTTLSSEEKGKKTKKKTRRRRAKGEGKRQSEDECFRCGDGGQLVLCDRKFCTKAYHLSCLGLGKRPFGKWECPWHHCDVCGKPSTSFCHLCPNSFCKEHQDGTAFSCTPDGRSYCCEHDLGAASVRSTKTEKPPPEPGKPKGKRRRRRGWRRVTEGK

[4] = intracellular Trypanosoma cruzi inhibitors in host cells – cell-based, plate reader, cherry-pick samples, set 3, dose response (AID 651818); assay type: functional;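 also: compounds incubated with infected cells for about four days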
[5] = target: T2, Cytochrome P450 1A2 (Homo sapiens, UniProt P05177);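 also: PubChem cytochrome P450 panel assay, CYP1A2 panel member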
T2 sequence (P05177 whole entry): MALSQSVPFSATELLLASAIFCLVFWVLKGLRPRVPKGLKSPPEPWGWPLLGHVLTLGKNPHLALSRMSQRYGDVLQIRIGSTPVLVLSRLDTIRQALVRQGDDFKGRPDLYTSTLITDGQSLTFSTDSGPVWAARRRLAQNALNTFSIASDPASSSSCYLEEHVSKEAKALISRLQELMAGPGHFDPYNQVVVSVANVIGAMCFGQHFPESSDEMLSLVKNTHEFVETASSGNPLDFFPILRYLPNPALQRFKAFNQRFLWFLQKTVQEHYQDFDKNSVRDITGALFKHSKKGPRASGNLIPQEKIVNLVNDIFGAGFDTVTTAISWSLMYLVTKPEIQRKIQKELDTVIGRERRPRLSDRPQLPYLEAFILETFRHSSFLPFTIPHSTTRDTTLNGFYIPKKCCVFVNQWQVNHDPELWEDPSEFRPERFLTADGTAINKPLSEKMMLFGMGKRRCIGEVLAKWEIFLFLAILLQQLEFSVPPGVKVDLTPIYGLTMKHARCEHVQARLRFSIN

[6] = target: T3, Cytochrome P450 2C9 (Homo sapiens, UniProt P11712)
[7] = target: Cytochrome P450 2C19 (Homo sapiens, UniProt P33261); test: Cytochrome panel assay with activity outcomes. Panel member name: p450-cyp2c19 Compounds with AC50 equal or less than 10 uM are considered active; assay type: functional
[8] = target: T4, Calpain-2 catalytic subunit (Sus scrofa, UniProt P43367); test: m-calpain protease blockers, concentration series – biochemical, fluorogenic peptide substrate, dose response (AID 1420); assay type: functional
T4 sequence (P43367 whole entry): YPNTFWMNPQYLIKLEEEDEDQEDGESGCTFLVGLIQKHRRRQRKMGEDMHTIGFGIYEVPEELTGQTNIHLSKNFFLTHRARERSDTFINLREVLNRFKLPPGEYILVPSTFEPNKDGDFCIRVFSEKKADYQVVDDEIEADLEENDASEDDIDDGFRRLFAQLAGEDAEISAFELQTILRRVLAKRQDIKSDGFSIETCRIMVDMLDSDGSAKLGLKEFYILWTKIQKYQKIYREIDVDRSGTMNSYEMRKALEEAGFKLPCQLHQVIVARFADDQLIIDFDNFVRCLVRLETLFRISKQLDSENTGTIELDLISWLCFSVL

[9] = test system: INS1; test: INS-1E survival protection against cytokine death – cell-based, luminescence, retest, dose response (AID 449756); assay type: functional; settings: Rattus norvegicus;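 also: cell death triggered by IL-1 beta plus TNF-alpha plus IFN-gamma mixture; protective hits raise ATP signal compared with cytokine alone wells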
[10] = target: Cytochrome P450 2D6 (Homo sapiens, UniProt P10635);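 also: CYP2D6 member of a cytochrome P450 panel assay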
[11] = viability of PTEN-deleted HCT116 cells – cell-based, HCT116 PTEN knockout, dose response (AID 1047); assay type: functional;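 also: HCT116 colon tumor cells with PTEN knocked out; cells exposed to compound for 60 hours before readout; potency for loss of cell viability measured by luminescence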
[12] = viability of HCT116 lacking mutant beta-catenin – cell-based, human colon tumor, dose response (AID 1045); assay type: functional;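 also: HCT116 colon tumor cells with beta catenin knocked out; cells exposed to compound for 60 hours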
[13] = target: Cytochrome P450 3A4 (Homo sapiens, UniProt P08684);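 also: CYP3A4 tested as one member of a cytochrome P450 panel screen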
[14] = target: T3, Cytochrome P450 2C9; remark: listed apart in the source
[15] = target: T5, Corticotropin-releasing factor receptor 2/Corticotropin-releasing factor-binding protein (Homo sapiens, UniProt P24387+Q13324); test: activators of CRF receptor 2 with binding protein – uHTS hits, confirmation (AID 602473); assay type: functional; settings: read-out: EC50_Mean
T5 sequence (Q13324 whole entry): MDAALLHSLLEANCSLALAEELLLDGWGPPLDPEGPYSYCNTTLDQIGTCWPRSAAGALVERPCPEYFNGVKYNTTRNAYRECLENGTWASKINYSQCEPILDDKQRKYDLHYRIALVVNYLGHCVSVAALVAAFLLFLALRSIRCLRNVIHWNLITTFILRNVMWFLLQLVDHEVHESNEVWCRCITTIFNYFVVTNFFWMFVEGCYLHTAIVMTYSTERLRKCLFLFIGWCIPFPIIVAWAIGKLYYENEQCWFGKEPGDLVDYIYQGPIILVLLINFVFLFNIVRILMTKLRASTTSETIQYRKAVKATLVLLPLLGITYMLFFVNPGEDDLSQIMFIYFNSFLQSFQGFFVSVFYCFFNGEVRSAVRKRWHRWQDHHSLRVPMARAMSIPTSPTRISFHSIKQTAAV
T5 sequence (P24387 whole entry): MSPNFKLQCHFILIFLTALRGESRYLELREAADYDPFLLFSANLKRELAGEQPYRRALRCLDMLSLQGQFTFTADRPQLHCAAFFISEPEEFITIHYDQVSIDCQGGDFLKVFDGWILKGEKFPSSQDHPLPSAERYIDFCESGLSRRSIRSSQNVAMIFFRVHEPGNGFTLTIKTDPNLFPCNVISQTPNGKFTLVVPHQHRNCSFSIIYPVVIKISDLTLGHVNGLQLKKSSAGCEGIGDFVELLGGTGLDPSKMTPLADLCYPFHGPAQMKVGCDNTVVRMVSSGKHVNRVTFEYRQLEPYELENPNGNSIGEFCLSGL

T3 sequence (P11712 whole entry): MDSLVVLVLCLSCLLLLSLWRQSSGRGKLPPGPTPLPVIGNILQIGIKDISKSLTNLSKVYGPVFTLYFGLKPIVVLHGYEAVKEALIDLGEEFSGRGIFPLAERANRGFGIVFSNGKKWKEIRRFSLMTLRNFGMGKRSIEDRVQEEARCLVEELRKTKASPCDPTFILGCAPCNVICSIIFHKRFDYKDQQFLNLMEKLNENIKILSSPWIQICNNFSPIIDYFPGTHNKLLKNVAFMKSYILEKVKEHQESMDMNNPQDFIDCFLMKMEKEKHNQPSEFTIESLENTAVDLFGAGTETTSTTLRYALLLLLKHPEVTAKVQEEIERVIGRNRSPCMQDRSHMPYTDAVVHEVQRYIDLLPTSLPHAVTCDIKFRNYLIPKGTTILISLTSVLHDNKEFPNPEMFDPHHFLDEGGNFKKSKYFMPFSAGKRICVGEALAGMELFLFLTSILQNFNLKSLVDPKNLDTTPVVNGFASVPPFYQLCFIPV
Sequence of G-protein coupled receptor 55 (Q9Y2T6 whole entry): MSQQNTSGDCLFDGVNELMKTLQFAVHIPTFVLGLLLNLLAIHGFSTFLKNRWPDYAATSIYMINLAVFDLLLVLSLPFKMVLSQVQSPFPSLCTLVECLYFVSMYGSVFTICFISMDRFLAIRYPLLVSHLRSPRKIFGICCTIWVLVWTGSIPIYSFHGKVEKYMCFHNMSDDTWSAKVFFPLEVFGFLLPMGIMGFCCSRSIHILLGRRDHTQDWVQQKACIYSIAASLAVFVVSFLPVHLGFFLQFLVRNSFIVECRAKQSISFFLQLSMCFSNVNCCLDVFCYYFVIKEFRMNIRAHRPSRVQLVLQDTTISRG
Sequence of Cytochrome P450 2C19 (P33261 whole entry): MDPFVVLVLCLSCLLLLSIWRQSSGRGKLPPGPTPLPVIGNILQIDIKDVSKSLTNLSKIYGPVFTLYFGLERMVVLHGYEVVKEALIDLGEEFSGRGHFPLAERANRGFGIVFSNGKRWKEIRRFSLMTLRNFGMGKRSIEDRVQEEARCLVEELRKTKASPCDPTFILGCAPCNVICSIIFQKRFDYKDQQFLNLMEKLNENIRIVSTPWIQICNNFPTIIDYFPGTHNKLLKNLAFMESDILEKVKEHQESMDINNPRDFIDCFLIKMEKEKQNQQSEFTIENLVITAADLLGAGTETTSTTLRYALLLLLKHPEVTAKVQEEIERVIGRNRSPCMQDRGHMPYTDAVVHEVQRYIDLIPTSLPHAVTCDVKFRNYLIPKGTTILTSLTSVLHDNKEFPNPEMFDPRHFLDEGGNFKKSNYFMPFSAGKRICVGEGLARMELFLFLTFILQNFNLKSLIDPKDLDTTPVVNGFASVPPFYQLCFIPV
Sequence of Cytochrome P450 2D6 (P10635 whole entry): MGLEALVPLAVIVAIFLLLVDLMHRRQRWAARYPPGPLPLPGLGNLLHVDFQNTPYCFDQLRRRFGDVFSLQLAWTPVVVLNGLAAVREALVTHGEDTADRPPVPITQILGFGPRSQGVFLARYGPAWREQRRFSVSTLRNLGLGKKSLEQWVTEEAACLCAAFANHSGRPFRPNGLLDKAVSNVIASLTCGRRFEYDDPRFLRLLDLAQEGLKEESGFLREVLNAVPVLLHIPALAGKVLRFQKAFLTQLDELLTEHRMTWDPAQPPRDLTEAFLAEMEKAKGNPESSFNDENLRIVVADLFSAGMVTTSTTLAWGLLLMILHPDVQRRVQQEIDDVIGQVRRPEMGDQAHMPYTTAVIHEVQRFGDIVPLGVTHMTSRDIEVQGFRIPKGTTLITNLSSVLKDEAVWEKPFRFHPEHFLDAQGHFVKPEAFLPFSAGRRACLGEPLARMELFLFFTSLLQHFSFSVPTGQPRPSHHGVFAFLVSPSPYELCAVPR
Sequence of Cytochrome P450 3A4 (P08684 whole entry): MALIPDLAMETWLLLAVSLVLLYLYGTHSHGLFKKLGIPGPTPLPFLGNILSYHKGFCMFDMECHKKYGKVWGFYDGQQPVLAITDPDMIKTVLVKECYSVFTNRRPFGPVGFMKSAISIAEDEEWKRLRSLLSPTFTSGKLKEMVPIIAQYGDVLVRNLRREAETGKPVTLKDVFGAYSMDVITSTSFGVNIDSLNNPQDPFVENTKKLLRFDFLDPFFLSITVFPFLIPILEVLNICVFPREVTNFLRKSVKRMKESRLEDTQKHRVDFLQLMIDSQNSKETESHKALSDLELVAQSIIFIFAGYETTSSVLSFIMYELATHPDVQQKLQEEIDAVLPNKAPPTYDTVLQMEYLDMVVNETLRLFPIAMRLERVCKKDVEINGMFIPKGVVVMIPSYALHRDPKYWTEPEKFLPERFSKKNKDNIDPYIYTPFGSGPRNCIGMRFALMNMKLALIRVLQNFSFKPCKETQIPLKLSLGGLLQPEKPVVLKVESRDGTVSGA

SMILES: CC(=C\c1ccccc1)/C=C1/SC(=O)N(CCCC(=O)Nc2ccc(C(=O)O)cc2)C1=O
- IC50 [1]: > 80 µM (inactive)

SMILES: CCN(CC(=O)Nc1c(F)cccc1F)C(=O)c1cc([N+](=O)[O-])ccc1N1CCCCC1
- IC50 [1]: > 80 µM (inactive)

SMILES: C[C@@H]1CN([C@H](C)CO)C(=O)Cc2cc(NC(=O)Cc3ccccc3)ccc2O[C@H]1CN(C)Cc1ccc(C(F)(F)F)cc1
- AC50 [4]: 5.77 µM (active)

SMILES: C[C@@H]1CN([C@@H](C)CO)C(=O)c2cccc(NC(=O)Nc3ccc(C(F)(F)F)cc3)c2O[C@H]1CN(C)Cc1ccc2c(c1)OCO2
- AC50 [4]: 1.34 µM (active)

SMILES: CC(=O)c1c(C)[nH]c(C(=O)OCc2cccc(Cl)c2)c1C
- IC50 [8]: 7.75 µM (not active)
- AC50 [9]: 20 µM (active)

SMILES: CN(C)c1cc[n+](Cc2c(Cl)cccc2Cl)cc1
- IC50 [1]: > 80 µM (inactive)
- AC50 [9]: 3.85 µM (active)

SMILES: COc1ccc(NS(=O)(=O)c2cc(NC(=O)c3cc(=O)c4ccccc4o3)ccc2OC)cc1
- IC50 [1]: > 80 µM (inactive)

SMILES: COc1ccccc1/C=C/C(=O)c1ccc(Cl)cc1
- EC50 [11]: 23.5 µM (active)
- EC50 [12]: 21.8 µM (active)
- EC50 [2]: 25.5 µM (inactive)
- AC50 [10]: 15.8 µM (inconclusive)
- AC50 [13]: 28.2 µM (inconclusive)
- AC50 [14]: 22.4 µM (inconclusive)

SMILES: C[C@@H]1CCCCO[C@H](CN(C)CC2CCCCC2)[C@@H](C)CN([C@H](C)CO)C(=O)c2cc(NC(=O)Nc3ccc4c(c3)OCO4)ccc2O1
- AC50 [4]: 1.96 µM (active)

SMILES: Cc1ccc(S(=O)(=O)N(C)C[C@H]2OCCCC[C@@H](C)Oc3ccc(NS(=O)(=O)c4ccc(Cl)cc4)cc3C(=O)N([C@H](C)CO)C[C@@H]2C)cc1
- AC50 [4]: 3.91 µM (active)

SMILES: Cc1noc(C)c1CSc1nc2nncc-2c(O)n1-c1ccccc1
- IC50 [1]: > 80 µM (inactive)

SMILES: C[C@@H]1CN([C@H](C)CO)C(=O)Cc2cc(NS(=O)(=O)c3ccc(Cl)cc3)ccc2O[C@H]1CN(C)Cc1ccc(Oc2ccccc2)cc1
- AC50 [4]: 4.56 µM (active)

SMILES: COc1ccc(NC(=O)Nc2cccc3c2O[C@H](CN(C)S(=O)(=O)c2ccc(F)cc2)[C@@H](C)CN([C@H](C)CO)C3=O)cc1
- AC50 [4]: 20 µM (inactive)

Next, values leading:

- EC50 [2]: 1.74 µM (active)
SMILES: O=C(N[C@H]1CCC(=O)N([C@H](CSc2ccccc2)Cc2ccccc2)CC1)OCc1ccccc1

- AC50 [3]: > 20 µM (inactive)
SMILES: CCN(CC)CCCNc1nc(-n2nc(C)cc2C)nc2sc3c(c12)CC(C)(C)OC3

- AC50 [5]: 20 µM (inconclusive)
- AC50 [6]: inconclusive
SMILES: COCCNc1ccnc(-c2ccccc2C(F)(F)F)n1

- AC50 ([7]; read-out: AC50): 28.2 µM (inconclusive)
- AC50 [5]: 39.8 µM (inconclusive)
- AC50 [6]: inconclusive
SMILES: CCOC(=O)c1c(C)c(C(=O)N2CCN(C(=O)c3ccco3)CC2)c(C)n1C

- AC50 [10]: 39.8 µM (inconclusive)
- AC50 [6]: inconclusive
SMILES: O=S(=O)(NCc1cc(-c2ccccc2Cl)no1)c1ccccc1

- AC50 [6]: inconclusive
SMILES: COc1ccccc1CNC(=O)CCCn1c(=O)c2ccccc2n(CC(=O)NC2CCCC2)c1=O

- AC50 [3]: 6.95 µM (active)
SMILES: CC(=O)Nc1ccc(Sc2ccccc2C(=O)O)cn1

- AC50 [3]: > 20 µM (inactive)
SMILES: O=C(/C=C/c1ccco1)Nc1scc(-c2ccccc2)c1C(=O)O

- EC50 [2]: 3.56 µM (active)
SMILES: CCc1noc(C)c1C(=O)Nc1nc(-c2ccc(Cl)cc2Cl)cs1

- IC50 [8]: 7.59 µM (not active)
- EC50 [15]: > 53 µM (inactive)
SMILES: CCOc1ccc(/C=N/OCC(=O)NC(c2ccccc2)c2ccccc2)cc1

- AC50 [3]: > 20 µM (inactive)
SMILES: CCN(CC)CCCNc1nc(CN2CCOCC2)nc2sc3c(c12)CCC3

- AC50 [6]: inconclusive
SMILES: COC(=O)Nc1nc2ccc(C(=O)c3ccccc3)cc2[nH]1 [MEBENDAZOLE]

- AC50 [7]: inconclusive
- AC50 [6]: inconclusive
SMILES: C[C@@]1(O)CCOC(=O)C1

- AC50 [6]: inconclusive
SMILES: Nc1ccccc1S(N)(=O)=O

- AC50 ([7]; read-out: AC50): 20 µM (inconclusive)
- AC50 [6]: inconclusive
SMILES: CN(C)c1ccc(-c2nc(N(C)Cc3ccco3)c3ccccc3n2)cc1
